“And” between values parts separate entries of the source, which are not always exact repeats. Equal values may be shown once. Numbers after ± are expanded uncertainties.
Details: Crystal

[Cl][Er]([Cl])[Cl] [erbium trichloride]
Details	vapor or sublimation pressure
880 K	1.07e-05 ± 3.2e-06 kPa
892 K	1.58e-05 ± 4.7e-06 kPa
897 K	2.14e-05 ± 6.4e-06 kPa
903 K	2.69e-05 ± 8.1e-06 kPa
907 K	1.7e-05 ± 5.1e-06 kPa and 3.24e-05 ± 9.7e-06 kPa
913 K	4.27e-05 ± 1.3e-05 kPa
916 K	5.13e-05 ± 1.5e-05 kPa
920 K	3.39e-05 ± 1e-05 kPa
921 K	5.89e-05 ± 1.8e-05 kPa
923 K	3.39e-05 ± 1e-05 kPa
925 K	4.27e-05 ± 1.3e-05 kPa and 6.92e-05 ± 2.1e-05 kPa
929 K	5.01e-05 ± 1.5e-05 kPa
932 K	5.01e-05 ± 1.5e-05 kPa and 4.27e-05 ± 1.3e-05 kPa
933 K	0.0001023 ± 3.1e-05 kPa
935 K	5.01e-05 ± 1.5e-05 kPa and 0.0001072 ± 3.2e-05 kPa
936 K	6.76e-05 ± 2e-05 kPa
943 K	0.0001445 ± 4.3e-05 kPa [middle of 4 runs]
948 K	0.0001349 ± 4.1e-05 kPa
949 K	8.51e-05 ± 2.5e-05 kPa
950 K	0.0001995 ± 6e-05 kPa
951 K	0.0001995 ± 6e-05 kPa
952 K	0.0001175 ± 3.5e-05 kPa
953 K	0.0001349 ± 4.1e-05 kPa
954 K	0.0001 ± 3e-05 kPa
958 K	0.0001514 ± 4.5e-05 kPa and 0.0001862 ± 5.6e-05 kPa
959 K	0.0002754 ± 8.3e-05 kPa
960 K	0.0002754 ± 8.3e-05 kPa
963 K	0.0001698 ± 5.1e-05 kPa [middle of 4 runs]
968 K	0.0002188 ± 6.6e-05 kPa and 0.0002692 ± 8.1e-05 kPa and 0.0003715 ± 0.00011 kPa
970 K	0.0002188 ± 6.6e-05 kPa and 0.0003802 ± 0.00011 kPa
972 K	0.0002692 ± 8.1e-05 kPa
976 K	0.0002344 ± 7e-05 kPa
977 K	0.0003981 ± 0.00012 kPa and 0.0002455 ± 7.4e-05 kPa
978 K	0.0003236 ± 9.7e-05 kPa
981 K	0.0003715 ± 0.00011 kPa
983 K	0.0004898 ± 0.00015 kPa
986 K	0.0004365 ± 0.00013 kPa
988 K	0.0003467 ± 0.0001 kPa
990 K	0.000631 ± 0.00019 kPa and 0.0004074 ± 0.00012 kPa and 0.0005012 ± 0.00015 kPa
995 K	0.0005754 ± 0.00017 kPa and 0.000631 ± 0.00019 kPa
997 K	0.0008318 ± 0.00025 kPa
998 K	0.0004786 ± 0.00014 kPa
999 K	0.0006761 ± 0.0002 kPa
1003 K	0.0006607 ± 0.0002 kPa and 0.0008511 ± 0.00026 kPa
1004 K	0.0007762 ± 0.00023 kPa
1008 K	0.0009333 ± 0.00028 kPa and 0.0006761 ± 0.0002 kPa
1012 K	0.001071 ± 0.00032 kPa
1013 K	0.001097 ± 0.00033 kPa
1014 K	0.001412 ± 0.00042 kPa
1016 K	0.001071 ± 0.00032 kPa
1017 K	0.001288 ± 0.00039 kPa
1018 K	0.0009333 ± 0.00028 kPa
1021 K	0.001445 ± 0.00043 kPa
1022 K	0.001514 ± 0.00045 kPa
1025 K	0.00195 ± 0.00058 kPa and 0.001698 ± 0.00051 kPa
1028 K	0.001318 ± 0.0004 kPa
1030 K	0.001514 ± 0.00045 kPa and 0.00195 ± 0.00059 kPa
1031 K	0.002138 ± 0.00064 kPa
1033 K	0.002512 ± 0.00075 kPa
1034 K	0.002512 ± 0.00075 kPa
1037 K	0.002455 ± 0.00074 kPa
1040 K	0.002818 ± 0.00085 kPa and 0.003162 ± 0.00095 kPa and 0.002344 ± 0.0007 kPa

[Br][Er]([Br])[Br] [erbium bromide (ErBr3)]
Details	vapor or sublimation pressure
919 K	2.82e-05 ± 8.5e-06 kPa
930 K	4.17e-05 ± 1.3e-05 kPa and 7.08e-05 ± 2.1e-05 kPa
941 K	7.08e-05 ± 2.1e-05 kPa
942 K	8.91e-05 ± 2.7e-05 kPa and 0.0001122 ± 3.4e-05 kPa
948 K	9.77e-05 ± 2.9e-05 kPa
952 K	0.000123 ± 3.7e-05 kPa
954 K	0.0001413 ± 4.2e-05 kPa
956 K	0.000182 ± 5.5e-05 kPa
959 K	0.0001413 ± 4.2e-05 kPa
961 K	0.0001995 ± 6e-05 kPa
962 K	0.0001778 ± 5.3e-05 kPa
964 K	0.000195 ± 5.8e-05 kPa
966 K	0.0001995 ± 6e-05 kPa
968 K	0.000182 ± 5.5e-05 kPa
970 K	0.0002692 ± 8.1e-05 kPa and 0.0002455 ± 7.4e-05 kPa
971 K	0.0002951 ± 8.8e-05 kPa
973 K	0.0002692 ± 8.1e-05 kPa
977 K	0.0003467 ± 0.0001 kPa
979 K	0.0003311 ± 9.9e-05 kPa and 0.0002818 ± 8.4e-05 kPa
982 K	0.0003631 ± 0.00011 kPa
984 K	0.0004898 ± 0.00015 kPa
988 K	0.0004786 ± 0.00014 kPa
989 K	0.0004677 ± 0.00014 kPa
990 K	0.0004898 ± 0.00015 kPa
993 K	0.0005623 ± 0.00017 kPa and 0.0004169 ± 0.00013 kPa
998 K	0.000631 ± 0.00019 kPa and 0.0006166 ± 0.00018 kPa and 0.0007943 ± 0.00024 kPa
1004 K	0.0009333 ± 0.00028 kPa
1007 K	0.0008318 ± 0.00025 kPa
1008 K	0.0006761 ± 0.0002 kPa and 0.0008511 ± 0.00026 kPa
1009 K	0.000871 ± 0.00026 kPa
1010 K	0.0009772 ± 0.00029 kPa
1015 K	0.001349 ± 0.0004 kPa
1018 K	0.001148 ± 0.00034 kPa and 0.001122 ± 0.00034 kPa
1020 K	0.001 ± 0.0003 kPa
1025 K	0.001698 ± 0.00051 kPa and 0.001445 ± 0.00043 kPa
1026 K	0.001514 ± 0.00045 kPa
1028 K	0.002089 ± 0.00063 kPa
1033 K	0.002138 ± 0.00064 kPa and 0.001585 ± 0.00048 kPa
1036 K	0.002042 ± 0.00061 kPa and 0.00257 ± 0.00077 kPa and 0.002089 ± 0.00063 kPa
1045 K	0.002951 ± 0.00089 kPa and 0.002818 ± 0.00085 kPa
1051 K	0.003631 ± 0.0011 kPa
1056 K	0.00389 ± 0.0012 kPa
1058 K	0.004365 ± 0.0013 kPa

Source: the NIST ThermoML archive (doi:10.1021/je020220n)
